# Laboratory results as given in US11766044B2, “Method for controlling PPO resistant weeds” (BASF SE, priority 2016, dated 2023).
# Read-outs that look alike come from different tables or passages of the source.
# Assays:
# [1] = test system: sensitive (w.1, w.4) and resistant weeds (w.2, w.3, w.5, w.6); assay: First greenhouse experiment, summary in words; type: in vivo, Amaranthus tamariscinus, Ambrosia elatior; conditions: table 2, 1 and 2 g/ha
# [2] = test system: Amaranthus tuberculatus (AMATU, tall waterhemp), Sensitive (w.7); assay: Greenhouse herbicidal activity test, another (second) experiment, weed w.7; type: in vivo; conditions: scale 0 to 100
# [3] = test system: Amaranthus tamariscinus (AMATA, common waterhemp), PPO resistant biotype 1 (w.2); type: in vivo; conditions: scale 0 to 100
# [4] = test system: Ambrosia elatior (AMBEL, common ragweed), Sensitive (w.4); type: in vivo; conditions: scale 0 to 100
# [5] = test system: Amaranthus tamariscinus (AMATA, common waterhemp), Sensitive (w.1); type: in vivo
# [6] = test system: Amaranthus tamariscinus (AMATA, common waterhemp), PPO resistant biotype 2 (w.3); type: in vivo; conditions: scale 0 to 100
# [7] = test system: sensitive (w.10) and resistant weeds (w.11, w.12); assay: Third greenhouse experiment, summary in words; type: in vivo, Amaranthus tamariscinus; conditions: table 4, 2 and 4 g/ha
compound,measurement,setting,value
"C#CCN1C(=O)COc2cc(F)c(N3C(=O)C4=C(CCCC4)C3=O)cc21 [flumioxazin, reference compound]",control of resistant in comparison to sensitive biotypes,[1],much weaker control
CCOC(=O)COc1ncccc1Oc1cc(-n2c(=O)cc(C(F)(F)F)n(C)c2=O)c(F)cc1Cl [compound (I).1],Weed control (%) 7,[2]; use rate 1 g/ha,100%
same,Weed control (%) 7,[2]; use rate 2 g/ha,100%
same,Weed control (%) w.2,[3]; use rate 1 g/ha,100%
same,Weed control (%) w.2,[3]; use rate 2 g/ha,100%
same,Weed control (%) w.4,[4]; use rate 1 g/ha,100%
same,Weed control (%) w.4,[4]; use rate 2 g/ha,100%
same,activity on both sensitive and resistant weeds,"[1]; sensitive w.1, w.4, resistant w.2, w.3, w.5, w.6",very good activity
same,Weed control (%) w.1,"[5]; use rate 1 g/ha, scale 0 to 100",100%
same,Weed control (%) w.1,"[5]; use rate 2 g/ha, scale 0 to 100, 100 = complete destruction",100%
same,Weed control (%) w.3,[6]; use rate 1 g/ha,100%
same,Weed control (%) w.3,[6]; use rate 2 g/ha,100%
"C#CCOc1cc(-n2nc3n(c2=O)CCCC3)c(Cl)cc1Cl [azafenidin, reference compound]",control of resistant in comparison to sensitive biotypes,[7],much weaker control
CCOC(=O)COc1ccccc1Oc1cc(-n2c(=O)cc(C(F)(F)F)n(C)c2=O)c(F)cc1Cl [compound (I).4],activity on both sensitive and resistant weeds,"[7]; sensitive w.10, resistant w.11, w.12",very good activity
